# Test system: moderate-to-severe chronic spontaneous urticaria (CSU)
# Assay: Phase 2 CSU study: itch severity score over 7 days (ISS7)
# Type: in vivo, human
# Conditions: 400 mg BID; for Change from Baseline in ISS7 at Week 12, LS Mean / Change from Baseline in ISS7 at Week 12, LS Mean Diff vs. placebo / Change from Baseline in ISS7 at Week 12, Mean: Omalizumab-naïve population
# Source text: The study comprises a 12 week, randomized, double-blind, placebo-controlled, multi-center, dose-ranging efficacy and safety phase, followed by a 40 week open label extension (OLE) phase (see FIG. 1). The study consists of three phases and an optional OLE phase. […] Clinically, CSU is characterized by the spontaneous and recurrent appearance of pruritic hives. The proposed primary endpoints were the UAS7 at Week 12 in EU and EU reference countries and the ISS7 in the US. Regardless of where a participant was from, all assessments were the same. The UAS7 score is a composite score containing both the HSS7 and the ISS7. This allowed a global assessment of the two key components of urticaria: hives and itch. […] The UAS is a validated PRO measure. […] The daily UAS scores range from 0 to 6 point/day. […] Patients were to complete the UAS using the e-diary. […] The following secondary endpoints were to be analyzed using the same approach as for the primary endpoint: • Change from baseline in UAS7 at Week 4 • Change from baseline in UAS7 at Week 12 (for US and US reference countries) • Change from baseline in ISS7 at Week 12 (except US and US reference countries) • Change from baseline in HSS7 at Week 12
# [1] = Baseline Eosinophils (10^9/L) <0.150
# [2] = Baseline Eosinophils (10^9/L) <0.165 (Median)
# [3] = Baseline Eosinophils (10^9/L) <0.3
# [4] = Baseline Eosinophils (10^9/L) ≥0.150
# [5] = Baseline Eosinophils (10^9/L) ≥0.165 (Median)
# [6] = Baseline Eosinophils (10^9/L) ≥0.3
# [7] = Baseline H1-antihistamines dose 1-fold
# [8] = Baseline H1-antihistamines dose 2 to 4-fold standard dose
# [9] = Baseline Total IgE (IU/mL) <100
# [10] = Baseline Total IgE (IU/mL) <300
# [11] = Baseline Total IgE (IU/mL) ≥100
# [12] = Baseline Total IgE (IU/mL) ≥300
# [13] = Duration of disease (years) 2-10
# [14] = Duration of disease (years) >10
smiles,measurement,setting,value
"CC(C)(C=C(C#N)C(=O)N1CCC[C@@H](n2nc(-c3ccc(Oc4ccccc4)cc3F)c3c(N)ncnc32)C1)N1CCN(C2COC2)CC1 [rilzabrutinib, (R)-2-[3-[4-amino-3-(2-fluoro-4-phenoxy-phenyl)pyrazolo[3,4-d]pyrimidin-1-yl]piperidine-1-carbonyl]-4-methyl-4-[4-(oxetan-3-yl)piperazin-1-yl]pent-2-enenitrile]","Change from Baseline in ISS7 at Week 12, LS Mean",Age group (years) <44 (Median),−7.05
same,"Change from Baseline in ISS7 at Week 12, LS Mean Diff vs. placebo",Age group (years) <44 (Median),−2.58
same,"Change from Baseline in ISS7 at Week 12, Mean",Age group (years) <44 (Median),−5.97
same,"Change from Baseline in ISS7 at Week 12, LS Mean",Age group (years) <65,−7.37
same,"Change from Baseline in ISS7 at Week 12, LS Mean Diff vs. placebo",Age group (years) <65,−1.71
same,"Change from Baseline in ISS7 at Week 12, Mean",Age group (years) <65,−7.17
same,"Change from Baseline in ISS7 at Week 12, LS Mean",Age group (years) ≥44 (Median),−8.10
same,"Change from Baseline in ISS7 at Week 12, LS Mean Diff vs. placebo",Age group (years) ≥44 (Median),−1.50
same,"Change from Baseline in ISS7 at Week 12, Mean",Age group (years) ≥44 (Median),−8.62
same,"Change from Baseline in ISS7 at Week 12, Mean",Age group (years) ≥65,−13.00
same,"Change from Baseline in ISS7 at Week 12, LS Mean",Baseline BHRA BHRA+,−8.42
same,"Change from Baseline in ISS7 at Week 12, LS Mean Diff vs. placebo",Baseline BHRA BHRA+,−3.03
same,"Change from Baseline in ISS7 at Week 12, Mean",Baseline BHRA BHRA+,−9.57
same,"Change from Baseline in ISS7 at Week 12, LS Mean",Baseline BHRA BHRA−,−6.59
same,"Change from Baseline in ISS7 at Week 12, Mean",Baseline BHRA BHRA−,−6.75
same,"Change from Baseline in ISS7 at Week 12, LS Mean Diff vs. placebo",Baseline BMI (kg/m^2) ≥30,−0.57
same,"Change from Baseline in ISS7 at Week 12, LS Mean",[1],−6.93
same,"Change from Baseline in ISS7 at Week 12, LS Mean Diff vs. placebo",[1],−0.15
same,"Change from Baseline in ISS7 at Week 12, LS Mean",[2],−7.37
same,"Change from Baseline in ISS7 at Week 12, LS Mean Diff vs. placebo",[2],−0.86
same,"Change from Baseline in ISS7 at Week 12, Mean",[2],−5.92
same,"Change from Baseline in ISS7 at Week 12, LS Mean",[3],−7.78
same,"Change from Baseline in ISS7 at Week 12, LS Mean Diff vs. placebo",[3],−2.31
same,"Change from Baseline in ISS7 at Week 12, Mean",[3],−7.62
same,"Change from Baseline in ISS7 at Week 12, LS Mean",[4],−7.91
same,"Change from Baseline in ISS7 at Week 12, LS Mean Diff vs. placebo",[4],−3.92
same,"Change from Baseline in ISS7 at Week 12, LS Mean",[5],−7.62
same,"Change from Baseline in ISS7 at Week 12, LS Mean Diff vs. placebo",[5],−3.53
same,"Change from Baseline in ISS7 at Week 12, Mean",[5],−8.88
same,"Change from Baseline in ISS7 at Week 12, LS Mean",[6],−6.15
same,"Change from Baseline in ISS7 at Week 12, LS Mean Diff vs. placebo",[6],−1.29
same,"Change from Baseline in ISS7 at Week 12, LS Mean",[7],−8.44
same,"Change from Baseline in ISS7 at Week 12, LS Mean Diff vs. placebo",[7],−1.60
same,"Change from Baseline in ISS7 at Week 12, Mean",[7],−9.03
same,"Change from Baseline in ISS7 at Week 12, LS Mean",[8],−6.73
same,"Change from Baseline in ISS7 at Week 12, LS Mean Diff vs. placebo",[8],−3.25
same,"Change from Baseline in ISS7 at Week 12, Mean",[8],−6.20
same,"Change from Baseline in ISS7 at Week 12, LS Mean",Baseline ISS7 score <13,−5.14
same,"Change from Baseline in ISS7 at Week 12, LS Mean Diff vs. placebo",Baseline ISS7 score <13,−2.42
same,"Change from Baseline in ISS7 at Week 12, Mean",Baseline ISS7 score <13,−5.28
same,"Change from Baseline in ISS7 at Week 12, LS Mean",Baseline ISS7 score ≥13,−7.87
same,"Change from Baseline in ISS7 at Week 12, LS Mean Diff vs. placebo",Baseline ISS7 score ≥13,−2.14
same,"Change from Baseline in ISS7 at Week 12, Mean",Baseline ISS7 score ≥13,−8.03
same,"Change from Baseline in ISS7 at Week 12, LS Mean",[9],−8.29
same,"Change from Baseline in ISS7 at Week 12, LS Mean Diff vs. placebo",[9],−4.06
same,"Change from Baseline in ISS7 at Week 12, Mean",[9],−8.52
same,"Change from Baseline in ISS7 at Week 12, LS Mean",[10],−7.94
same,"Change from Baseline in ISS7 at Week 12, LS Mean Diff vs. placebo",[10],−3.43
same,"Change from Baseline in ISS7 at Week 12, Mean",[10],−7.93
same,"Change from Baseline in ISS7 at Week 12, LS Mean",[11],−6.91
same,"Change from Baseline in ISS7 at Week 12, LS Mean Diff vs. placebo",[11],−0.88
same,"Change from Baseline in ISS7 at Week 12, Mean",[11],−6.57
same,"Change from Baseline in ISS7 at Week 12, LS Mean",[12],−7.17
same,"Change from Baseline in ISS7 at Week 12, LS Mean Diff vs. placebo",[12],−0.62
same,"Change from Baseline in ISS7 at Week 12, Mean",[12],−6.20
same,"Change from Baseline in ISS7 at Week 12, LS Mean",Baseline UAS7 score <28,−5.40
same,"Change from Baseline in ISS7 at Week 12, LS Mean Diff vs. placebo",Baseline UAS7 score <28,−2.22
same,"Change from Baseline in ISS7 at Week 12, Mean",Baseline UAS7 score <28,−6.29
same,"Change from Baseline in ISS7 at Week 12, LS Mean",Baseline UAS7 score ≥28,−8.64
same,"Change from Baseline in ISS7 at Week 12, LS Mean Diff vs. placebo",Baseline UAS7 score ≥28,−2.04
same,"Change from Baseline in ISS7 at Week 12, Mean",Baseline UAS7 score ≥28,−8.21
same,"Change from Baseline in ISS7 at Week 12, LS Mean",[13],−6.89
same,"Change from Baseline in ISS7 at Week 12, LS Mean Diff vs. placebo",[13],0.14
same,"Change from Baseline in ISS7 at Week 12, Mean",[13],−8.05
same,"Change from Baseline in ISS7 at Week 12, LS Mean",Duration of disease (years) <2,−8.54
same,"Change from Baseline in ISS7 at Week 12, LS Mean Diff vs. placebo",Duration of disease (years) <2,−4.89
same,"Change from Baseline in ISS7 at Week 12, Mean",Duration of disease (years) <2,−7.53
same,"Change from Baseline in ISS7 at Week 12, LS Mean",[14],5.36
same,"Change from Baseline in ISS7 at Week 12, LS Mean Diff vs. placebo",[14],9.04
same,"Change from Baseline in ISS7 at Week 12, Mean",[14],1.67
same,"Change from Baseline in ISS7 at Week 12, LS Mean",Ethnicity Hispanic,−5.19
same,"Change from Baseline in ISS7 at Week 12, LS Mean Diff vs. placebo",Ethnicity Hispanic,1.82
same,"Change from Baseline in ISS7 at Week 12, Mean",Ethnicity Hispanic,−4.42
same,"Change from Baseline in ISS7 at Week 12, LS Mean",Ethnicity Non-Hispanic,−8.43
same,"Change from Baseline in ISS7 at Week 12, LS Mean Diff vs. placebo",Ethnicity Non-Hispanic,−3.96
same,"Change from Baseline in ISS7 at Week 12, Mean",Ethnicity Non-Hispanic,−8.59
same,"Change from Baseline in ISS7 at Week 12, Mean",Gender Female,−6.99
same,"Change from Baseline in ISS7 at Week 12, Mean",Gender Male,−8.17
same,"Change from Baseline in ISS7 at Week 12, LS Mean",History of angioedema No,−7.93
same,"Change from Baseline in ISS7 at Week 12, LS Mean Diff vs. placebo",History of angioedema No,−2.59
same,"Change from Baseline in ISS7 at Week 12, LS Mean",History of angioedema Yes,−6.26
same,"Change from Baseline in ISS7 at Week 12, LS Mean Diff vs. placebo",History of angioedema Yes,−1.01
same,"Change from Baseline in ISS7 at Week 12, Mean",History of angioedema Yes,−4.04
same,"ISS7 at Week 12, Mean",ITT population,7.61
same,"ISS7 at Week 12, Median",ITT population,7.00
same,"ISS7 change from baseline at Week 12, Mean",ITT population,−8.21
same,"ISS7 change from baseline at Week 12, Median",ITT population,−8.00
same,"ISS7 change from baseline at Week 12, LS Mean","ITT population, ANCOVA",−8.06 points
same,"ISS7 change from baseline at Week 12, LS Mean Diff vs. placebo","ITT population, ANCOVA",−1.75
same,LS mean change in ISS7 from baseline (see Table 29),"ITT population, following one week of treatment",−5.23 points
same,"Change from Baseline in ISS7 at Week 12, LS Mean",Race All the Others,−6.99

# Source: US20260256792A1, “TREATMENT OF CHRONIC SPONTANEOUS URTICARIA BY ADMINISTERING (R)-2-[3-[4-AMINO-3-(2-FLUORO-4-PHENOXY-PHENYL)PYRAZOLO[3,4-D]PYRIMIDIN-1-YL]PIPERIDINE-1-CARBONYL]-4-METHYL-4-[4-(OXETAN-3-YL)PIPERAZIN-1-YL]PENT-2-ENENITRILE” (priority 2023, published 2026)
